Data: US20090258942A1 (priority 2008, published 2009)
Each block holds one molecule with its values, some of them ahead of it.

How the values were obtained:
[1] = tested on: MCF-7 breast cancer xenografts; assay: MCF-7 kidney capsule xenografts; conditions: 28 days; E2 0.5 mg/h, Calycosin 2.5 mg/h in saline; FIG. 5
Protocol: MCF-7 xenografts were introduced into nude mouse kidneys. Mice were randomized to three treatment groups. […] Each treatment group was treated for 28 days, after which mice were euthanized and the kidneys containing the xenografts were excised, photographed and weighed.

ERβ = ERβ (Homo sapiens, UniProt Q92731); conditions: in the presence of ERβ
Excerpt: (§1) Light emission at 560 nm is conveniently quantified in optical density units (O.D.560 nm).

TNF-RE tkLuc = TNF-RE tkLuc reporter, effect of antiestrogens; assay type: cell-based; conditions: in contrast to E2
Excerpt: as §1

[2] = target: estrogen receptor beta (ERβ) (Homo sapiens, UniProt Q92731); conditions: added to (a), (b), (c) or (d); FIGS. 4a-4d
Chain of estrogen receptor beta (ERβ) (Q92731 whole entry): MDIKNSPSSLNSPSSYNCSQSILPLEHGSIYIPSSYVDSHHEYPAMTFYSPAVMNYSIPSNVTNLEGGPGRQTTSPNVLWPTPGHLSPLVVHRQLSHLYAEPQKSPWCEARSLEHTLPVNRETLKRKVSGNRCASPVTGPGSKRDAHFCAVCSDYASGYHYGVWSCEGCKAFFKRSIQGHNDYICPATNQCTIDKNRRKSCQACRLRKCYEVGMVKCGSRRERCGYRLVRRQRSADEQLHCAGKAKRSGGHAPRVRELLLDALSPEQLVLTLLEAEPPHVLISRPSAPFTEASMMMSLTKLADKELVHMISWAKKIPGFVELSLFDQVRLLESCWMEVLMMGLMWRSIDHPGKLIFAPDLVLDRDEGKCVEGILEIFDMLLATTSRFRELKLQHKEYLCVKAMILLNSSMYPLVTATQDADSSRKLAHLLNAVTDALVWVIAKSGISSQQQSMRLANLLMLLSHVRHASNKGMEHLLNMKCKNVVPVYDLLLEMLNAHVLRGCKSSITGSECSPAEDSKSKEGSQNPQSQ

breast cancer = conditions: among 5129 women in the treatment group; median follow-up 40 months; cited from earlier work
[3] = tested on: estrogen receptor-positive breast cancer; conditions: five years of therapy; cited from earlier work
[4] = tested on: primary invasive breast cancer; conditions: women at high risk for breast cancer; cited from earlier work

Chain of ERβ (Q92731 whole entry): as above

Structure (SMILES): COc1ccc(-c2coc3cc(O)ccc3c2=O)cc1O [Calycosin, 3-(4-methoxy-3-hydroxyphenyl)-7-hydroxycoumarin]
- growth of MCF-7 kidney capsule xenografts as compared to control [1]: inhibits the growth of MCF-7 breast cancer xenografts

- repression of TNF-α activation of TNF-RE tkLuc (ERβ): 60-80%
Structure (SMILES): C[C@]12CC[C@@H]3c4ccc(O)cc4CC[C@H]3[C@@H]1CC[C@@H]2O [E2, estradiol]

Structure (SMILES): C[C@]12CC[C@@H]3c4ccc(O)cc4C[C@@H](CCCCCCCCC[S+]([O-])CCCC(F)(F)C(F)(F)F)[C@H]3[C@@H]1CC[C@@H]2O (stereo partly shown) [ICI 182780]
- activation of TNF-RE tkLuc (TNF-RE tkLuc): 2 fold

- effect of addition on ERE activation by compounds (a)-(d) through ERβ [2]: reduced this activation
Structure (SMILES): O=C(c1ccc(OCCN2CCCCC2)cc1)c1c(-c2ccc(O)cc2)sc2cc(O)ccc12 [raloxifene]
- cases of breast cancer (breast cancer): 13 cases
- activation of TNF-RE tkLuc (TNF-RE tkLuc): 2 fold

Structure (SMILES): CC/C(=C(\c1ccccc1)c1ccc(OCCN(C)C)cc1)c1ccccc1 [tamoxifen]
- reduction of mortality from breast cancer [3]: 22%
- reduction of the risk of recurrences [3]: 42%
- reduction of the risk of primary invasive breast cancer [4]: 49%
- activation of TNF-RE tkLuc (TNF-RE tkLuc): 2 fold
